{
  "source": "PubChem BioAssay AID298",
  "about": "(DTP/NCI, 2004)",
  "system": "MX-1 breast xenograft, intrarenal, nude mice, tumor weight",
  "test": "NCI In Vivo Anticancer Drug Screen. Data for tumor model Human Mammary Carcinoma MX-1 Xenograft (intrarenal inoculation) in NU/NU BALB/C (nude) mice",
  "settings": "endpoint: mean tumor weight change, higher = larger tumour",
  "summary_of_the_method": "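Efficacy in vivo: tumor measurement or survival of treated animals divided by that of vehicle-dosed controls.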",
  "key": {"[1]": {"settings": "dose: 100.0 mg/kg/injection, schedule: Q04DX003 (ip), vehicle: Klucel (hydroxypropylcellulose) (HPC)"}, "[2]": {"settings": "dose: 200.0 mg/kg/injection, schedule: Q04DX003 (ip), vehicle: Klucel (hydroxypropylcellulose) (HPC)"}, "[3]": {"settings": "dose: 150.0 mg/kg/injection, schedule: Q04DX003 (ip), vehicle: water"}, "[4]": {"settings": "dose: 600.0 mg/kg/injection, schedule: Q04DX003 (ip), vehicle: water"}, "[5]": {"settings": "dose: 1200.0 mg/kg/injection, schedule: Q04DX003 (ip), vehicle: water"}, "[6]": {"settings": "dose: 300.0 mg/kg/injection, schedule: Q04DX003 (ip), vehicle: water"}},
  "note": "“And” between values parts separate entries of the source, which are not always exact repeats. Equal entries are not always repeated. Records with an inconclusive call do not appear.",
  "data": [
    {"smiles": "O=S1(=O)CS(=O)(=O)OCCO1", "values": [
      {"measurement": "T/C", "setting": "dose: 12.5 mg/kg/injection, schedule: Q04DX003 (sc), vehicle: Klucel (hydroxypropylcellulose) (HPC)", "result": "72 % of control"},
      {"measurement": "T/C", "setting": "dose: 25.0 mg/kg/injection, schedule: Q04DX003 (sc), vehicle: Klucel (hydroxypropylcellulose) (HPC)", "result": "23 % of control"},
      {"measurement": "T/C", "setting": "dose: 37.5 mg/kg/injection, schedule: Q04DX003 (sc), vehicle: Klucel (hydroxypropylcellulose) (HPC)", "result": "42 % of control"},
      {"measurement": "T/C", "setting": "dose: 50.0 mg/kg/injection, schedule: Q04DX003 (sc), vehicle: Klucel (hydroxypropylcellulose) (HPC)", "result": "2 % of control"},
      {"measurement": "T/C", "setting": "dose: 150.0 mg/kg/injection, schedule: Q04DX003 (sc), vehicle: Klucel (hydroxypropylcellulose) (HPC)", "result": "16 % of control and 21 % of control"},
      {"measurement": "T/C", "setting": "dose: 300.0 mg/kg/injection, schedule: Q04DX003 (sc), vehicle: Klucel (hydroxypropylcellulose) (HPC)", "result": "11 % of control"}
    ]},
    {"smiles": "COc1cccc(Sc2ccc([N+](=O)[O-])c3no[n+]([O-])c23)c1", "values": [
      {"measurement": "T/C", "setting": "dose: 7.5 mg/kg/injection, schedule: Q04DX003 (ip), vehicle: saline with Tween-80", "result": "69 % of control and 86 % of control"},
      {"measurement": "T/C", "setting": "dose: 30.0 mg/kg/injection, schedule: Q04DX003 (ip), vehicle: saline with Tween-80", "result": "124 % of control"},
      {"measurement": "T/C", "setting": "dose: 480.0 mg/kg/injection, schedule: Q04DX003 (ip), vehicle: saline with Tween-80", "result": "36 % of control and 41 % of control and 50 % of control"}
    ]},
    {"smiles": "CN(C)c1ccc2c(Nc3ccc(NS(C)(=O)=O)cc3)c3ccc(N(C)C)cc3nc2c1", "values": [
      {"measurement": "T/C", "setting": "[1]", "result": "115 % of control"},
      {"measurement": "T/C", "setting": "[2]", "result": "39 % of control"}
    ]},
    {"smiles": "COc1cc2c[n+](C)c3c4cc5c(cc4ccc3c2cc1OC)OCO5", "values": [
      {"measurement": "T/C", "setting": "dose: 25.0 mg/kg/injection, schedule: Q04DX003 (sc), vehicle: saline with Tween-80", "result": "94 % of control"},
      {"measurement": "T/C", "setting": "dose: 50.0 mg/kg/injection, schedule: Q04DX003 (sc), vehicle: saline with Tween-80", "result": "116 % of control"},
      {"measurement": "T/C", "setting": "dose: 100.0 mg/kg/injection, schedule: Q04DX003 (sc), vehicle: saline with Tween-80", "result": "111 % of control"},
      {"measurement": "T/C", "setting": "dose: 200.0 mg/kg/injection, schedule: Q04DX003 (sc), vehicle: saline with Tween-80", "result": "108 % of control"}
    ]},
    {"smiles": "C=CC1(C)CC(=O)C2(O)C(C)(O1)C(OC(C)=O)C(O)C1C(C)(C)CCC(O)C12C", "note": "(configuration not stated)", "values": [
      {"measurement": "T/C", "setting": "dose: 8.0 mg/kg/injection, schedule: Q04DX003 (ip), vehicle: DMSO", "result": "159 % of control"},
      {"measurement": "T/C", "setting": "dose: 16.0 mg/kg/injection, schedule: Q04DX003 (ip), vehicle: DMSO", "result": "100 % of control and 115 % of control"},
      {"measurement": "T/C", "setting": "dose: 64.0 mg/kg/injection, schedule: Q04DX003 (ip), vehicle: DMSO", "result": "109 % of control"}
    ]},
    {"smiles": "[Na+]", "values": [
      {"measurement": "T/C", "setting": "[3]", "result": "66 % of control"},
      {"measurement": "T/C", "setting": "[4]", "result": "84 % of control"},
      {"measurement": "T/C", "setting": "[5]", "result": "97 % of control"}
    ]},
    {"smiles": "CC(=O)N(C)O", "values": [
      {"measurement": "T/C", "setting": "dose: 37.5 mg/kg/injection, schedule: Q04DX003 (sc), vehicle: saline with Tween-80", "result": "98 % of control"},
      {"measurement": "T/C", "setting": "dose: 75.0 mg/kg/injection, schedule: Q04DX003 (sc), vehicle: saline with Tween-80", "result": "80 % of control"},
      {"measurement": "T/C", "setting": "dose: 150.0 mg/kg/injection, schedule: Q04DX003 (sc), vehicle: saline with Tween-80", "result": "69 % of control"},
      {"measurement": "T/C", "setting": "dose: 300.0 mg/kg/injection, schedule: Q04DX003 (sc), vehicle: saline with Tween-80", "result": "87 % of control"}
    ]},
    {"smiles": "C#CCN(Cc1ccc2nc(N)[nH]c(=O)c2c1)c1ccc(C(=O)NC(CCC(=O)O)C(=O)O)cc1", "note": "(configuration not stated)", "values": [
      {"measurement": "T/C", "setting": "dose: 75.0 mg/kg/injection, schedule: Q04DX003 (ip), vehicle: water", "result": "111 % of control"},
      {"measurement": "T/C", "setting": "[3]", "result": "74 % of control"},
      {"measurement": "T/C", "setting": "[6]", "result": "72 % of control"}
    ]},
    {"smiles": "O=C1C2=C(Nc3cc([N+](=O)[O-])ccc3N2)OC1c1ccccn1", "note": "(configuration not stated)", "values": [
      {"measurement": "T/C", "setting": "dose: 50.0 mg/kg/injection, schedule: Q04DX003 (ip), vehicle: Klucel (hydroxypropylcellulose) (HPC)", "result": "87 % of control"},
      {"measurement": "T/C", "setting": "[1]", "result": "66 % of control"},
      {"measurement": "T/C", "setting": "[2]", "result": "118 % of control"},
      {"measurement": "T/C", "setting": "dose: 400.0 mg/kg/injection, schedule: Q04DX003 (ip), vehicle: Klucel (hydroxypropylcellulose) (HPC)", "result": "63 % of control"}
    ]},
    {"smiles": "COc1cc(/C=C/[N+](=O)[O-])cc(Br)c1OC", "values": [
      {"measurement": "T/C", "setting": "dose: 6.25 mg/kg/injection, schedule: Q04DX003 (ip), vehicle: saline with Tween-80", "result": "81 % of control"},
      {"measurement": "T/C", "setting": "dose: 12.5 mg/kg/injection, schedule: Q04DX003 (ip), vehicle: saline with Tween-80", "result": "104 % of control"},
      {"measurement": "T/C", "setting": "dose: 25.0 mg/kg/injection, schedule: Q04DX003 (ip), vehicle: saline with Tween-80", "result": "92 % of control and 105 % of control"},
      {"measurement": "T/C", "setting": "dose: 50.0 mg/kg/injection, schedule: Q04DX003 (ip), vehicle: saline with Tween-80", "result": "96 % of control"}
    ]},
    {"smiles": "CN1C2CCC1C(Br)C(=O)C2", "note": "(configuration not stated)", "values": [
      {"measurement": "T/C", "setting": "dose: 100.0 mg/kg/injection, schedule: Q04DX003 (ip), vehicle: saline", "result": "100 % of control"},
      {"measurement": "T/C", "setting": "dose: 200.0 mg/kg/injection, schedule: Q04DX003 (ip), vehicle: saline", "result": "66 % of control"}
    ]},
    {"smiles": "CC(=O)NO", "values": [
      {"measurement": "T/C", "setting": "[3]", "result": "78 % of control"},
      {"measurement": "T/C", "setting": "[6]", "result": "113 % of control"},
      {"measurement": "T/C", "setting": "[4]", "result": "79 % of control"},
      {"measurement": "T/C", "setting": "[5]", "result": "74 % of control"}
    ]}
  ]
}
